This is an account of results in US11045411B2, “Process for treating keratin materials using amide, acid or ester c-glycoside derivatives, and cosmetic composition containing same” (L'OREAL, priority 2015, dated 2021).

Molecules are shown by their SMILES. “And” between values parts separate entries of the source, which are not always exact repeats. Equal entries are not always repeated.

For assay [1], the system named is normal human epidermal keratinocytes. As to the kind of experiment: Synthesis of total glycosaminoglycans, [3H]-glucosamine incorporation in normal human epidermal keratinocytes. It is filed as cell-based. The note with it: for % relative to control, glucosamine incorporation / Mean value, radioactive glucosamine incorporated: 72 hours; for incorporation of radioactive glucosamine: result in words. Here is the method: The study is carried out by measuring the incorporation of radioactive glucosamine into the matrix neosynthesized by cultures of normal human epidermal keratinocytes. The incorporation of radioactive [^3H]-glucosamine indicates a specific neosynthesis of total glycosaminoglycans.
The test is carried out on a culture of normal human epidermal keratinocytes in a 96-well plate and cultured in culture medium for 24 hours:
Culture medium: Keratinocytes-SFM supplemented with 0.5 ng/ml epidermal growth factor (EGF), 25 μg/ml pituitary extract, 25 μg/ml gentamycin.
Culture conditions: 37° C.; 5% CO2
The medium was then replaced with culture medium containing or not containing (control) the compound (I) tested or the references 4-nitrophenyl-B-D-xylopyranoside (tested at 300 μM) and 4-methylumbelliferyl-B-D-xylopyranoside (tested at 54 μM) or the solvent control (DMSO at 0.1%), then the cells were incubated for 72 hours with addition of the [^3H]-glucosamine label for the final 24 hours of incubation.
The test was carried out with 3 assays for each compound tested, at the concentrations of 1, 10, 100 and 300 μM.
At the end of the incubation, the glycosaminoglycans were extracted from the cells with a chaotropic buffer. The level of radioactive glucosamine incorporated is measured at the end of the test by adsorption of the anionic molecules on Q-sepharose beads, followed by desorption of the molecules having low and medium anionicity with 6M urea plus 0.2 M NaCl. Once washed, the radioactivity incorporated into the very […] molecules remaining on the support is counted.
The results were evaluated relative to a control constituted of cells which had not been treated with the compound (I).
A positive control (TGFβ at 0.25 ng/ml) known to stimulate GAG synthesis was introduced into the test carried as a positive reference.

In a further assay the test system is GLUT-1. Nature of the assay: GLUT-1 expression in normal human keratinocytes by immuno labeling. It is filed as cell-based. The note with it: for GLUT-1 expression vs 100% control: 48 hours, n=3; for expression of the GLUT-1 protein: result in words. The method, then:
Normal human keratinocytes (NHKs) were seeded and cultured in culture medium for 24 hours and then in test medium for a further 24 hours. After incubation, the medium was replaced with test medium containing or not containing (control) the test compounds or the references, and then the cells were incubated for 48 hours. All the experimental conditions were performed in n=3. After incubation, the culture medium was removed and the cells were rinsed, fixed and permeabilized. GLUT-1 expression was determined by immuno labeling.

Regarding `Cc1cc(=O)oc2cc(O[C@@H]3OC[C@@H](O)[C@H](O)[C@H]3O)ccc12` [4-methylumbelliferyl-β-D-xylopyranoside, 4-methylumbelliferyl-B-D-xylopyranoside, reference compound], in assay [1] (54 μM), the “% relative to control, glucosamine incorporation” value (“% relative to control” below) worked out at 213% and the “Mean value, radioactive glucosamine incorporated” value (shortened to “Mean value”) was determined as 32202 cpm.

Take `O=[N+]([O-])c1ccc(O[C@@H]2OC[C@@H](O)[C@H](O)[C@H]2O)cc1` [4-nitrophenyl β-D-xylopyranoside, 4-nitrophenyl-B-D-xylopyranoside, reference compound]: in assay [1] (300 μM), the “% relative to control” value stood at 207% and the “Mean value” value turned out to be 31280 cpm.

For `CNC(=O)C(O)C1O[C@H](CO)[C@@H](O)[C@H](O)[C@H]1O` (stereo partly shown) [Compound 1], the “GLUT-1 expression vs 100% control” value in the assay on GLUT-1 (compound at 10 μM) is 159% (p < 0.05). Besides, the “expression of the GLUT-1 protein” value in the assay on GLUT-1 was “very significantly stimulated”. Moreover, the “% relative to control” value in assay [1] (1 μM) is given as 125%; in assay [1] (10 μM) it was 117%; in assay [1] (100 μM), 118%; in assay [1] (300 μM), 97%. Also, the “Mean value” value in assay [1] (1 μM) was determined as 21591 cpm; in assay [1] (10 μM) it was 20216 cpm; in assay [1] (100 μM), 20451 cpm; in assay [1] (300 μM) it was 16850 cpm. The “incorporation of radioactive glucosamine” value in assay [1] (concentration of 1 μM) is “stimulate the incorporation of radioactive glucosamine”.

`CCCNC(=O)C(O)C1O[C@H](CO)[C@@H](O)[C@H](O)[C@H]1O` (stereo partly shown) [Compound 2]: the “% relative to control” value in assay [1] (1 μM) was determined as 110%; in assay [1] (10 μM) it was 126%; in assay [1] (100 μM), 123%; in assay [1] (300 μM), 127%. Also, the “Mean value” value in assay [1] (1 μM) came to 14638 cpm; in assay [1] (10 μM), 16779 cpm; in assay [1] (100 μM), 16435 cpm; in assay [1] (300 μM), 16929 cpm. Also, the “incorporation of radioactive glucosamine” value in assay [1] (concentration of 10 μM) was “stimulate the incorporation of radioactive glucosamine”.

As for `CCCCCCCCCCCCCCNC(=O)C(O)C1O[C@H](CO)[C@@H](O)[C@H](O)[C@H]1O` (stereo partly shown) [Compound 4], the “GLUT-1 expression vs 100% control” value with GLUT-1 (compound at 10 μM) is 142% (p < 0.01). Besides, the “expression of the GLUT-1 protein” value with GLUT-1 is on record as “very significantly stimulated”.

For the compound `CNC(=O)C(O)C1OC[C@@H](O)[C@H](O)[C@H]1O` (stereo partly shown) [Compound 5], the “% relative to control” value was found to be 134% in assay [1] (1 μM), 121% in assay [1] (10 μM), 119% in assay [1] (100 μM) and 116% in assay [1] (300 μM). The “Mean value” value in assay [1] (1 μM) was found to be 17792 cpm; in assay [1] (10 μM), 16133 cpm; in assay [1] (100 μM), 15835 cpm; in assay [1] (300 μM) it was 15495 cpm. For the same compound, in assay [1] (concentration of 1 μM), the “incorporation of radioactive glucosamine” value is recorded as “stimulate the incorporation of radioactive glucosamine”.

On to `CNC(=O)C(O)C1O[C@@H](C)[C@H](O)[C@@H](O)[C@H]1O` (stereo partly shown) [Compound 9], for which the “% relative to control” value in assay [1] (1 μM) stood at 120%; in assay [1] (10 μM) it was 114%; in assay [1] (100 μM), 131%; in assay [1] (300 μM), 169%. Moreover, the “Mean value” value in assay [1] (1 μM) is recorded as 16162 cpm; in assay [1] (10 μM) it was 15439 cpm; in assay [1] (100 μM), 17655 cpm; in assay [1] (300 μM), 22845 cpm. The “incorporation of radioactive glucosamine” value in assay [1] (concentration of 300 μM) is “stimulates the incorporation of radioactive glucosamine”.

As to `CNC(=O)C(O)C1O[C@H](CO)[C@@H](O)[C@H](O)[C@@H]1O` (stereo partly shown) [Compound 13], the “% relative to control” value in assay [1] (1 μM) came out at 119%; in assay [1] (10 μM) it was 129%; in assay [1] (100 μM), 134%; in assay [1] (300 μM), 139%. Also, the “Mean value” value in assay [1] (1 μM) was found to be 16090 cpm; in assay [1] (10 μM), 17340 cpm; in assay [1] (100 μM), 18139 cpm; in assay [1] (300 μM), 18804 cpm. In assay [1] (concentration of 10 μM), the “incorporation of radioactive glucosamine” value is listed as “stimulate the incorporation of radioactive glucosamine”.

As for `CNC(=O)C(O)C1O[C@H](CO)[C@H](O)[C@H](O)[C@H]1O` (stereo partly shown) [Compound 17], the “% relative to control” value is 129% in assay [1] (1 μM), 123% in assay [1] (10 μM), 132% in assay [1] (100 μM) and 108% in assay [1] (300 μM). Moreover, the “Mean value” value in assay [1] (1 μM) was 17387 cpm; in assay [1] (10 μM), 16614 cpm; in assay [1] (100 μM), 17861 cpm; in assay [1] (300 μM), 14498 cpm. Further, the “incorporation of radioactive glucosamine” value in assay [1] (concentration of 1 μM), in assay [1] (concentration of 10 μM) and in assay [1] (concentration of 100 μM) was “stimulates the incorporation of radioactive glucosamine” throughout.

With `CNC(=O)C(O)C1O[C@H](CO)[C@@H](OC2O[C@H](CO)[C@H](O)[C@H](O)[C@H]2O)[C@H](O)[C@H]1O` (stereo partly shown) [Compound 21], the “% relative to control” value in assay [1] (1 μM) is on record as 142%; in assay [1] (10 μM), 136%; in assay [1] (100 μM), 137%; in assay [1] (300 μM) it was 134%. Also, the “Mean value” value in assay [1] (1 μM) turned out to be 18416 cpm; in assay [1] (10 μM), 17611 cpm; in assay [1] (100 μM) it was 17796 cpm; in assay [1] (300 μM), 17429 cpm. Also, the “incorporation of radioactive glucosamine” value in assay [1] (concentration of 1 μM), in assay [1] (concentration of 10 μM) and in assay [1] (concentration of 300 μM) was “stimulates the incorporation of radioactive glucosamine” in each case.

With `CN(C)C(=N)N=C(N)N` [metformine, reference compound], the “GLUT-1 expression vs 100% control” value with GLUT-1 (Reference 2 mM metformine) was 252% (p < 0.01) and 296% (p < 0.001).
